These results are taken from a melting point compilation (Tetko et al.; mined from patent text by program, amines drawn as free bases though some values may be those of a salt).

SMILES strings stand for the structures.

For orientation: melting point means the temperature of the solid-liquid transition. With `CC(=O)Nc1ccc(S(=O)(=O)N[C@@H]2COCOC[C@H]2O)cc1` (relative stereo), the melting point lay within 161 to 163 °C.

Consider `CS(=O)(=O)c1ccc(-c2cnn(CC(F)(F)F)c(=O)c2Oc2ccc(F)cc2)cc1`, for which the melting point lay within 161 to 164 °C.

Turning to `CN(CCNC(=O)Cc1ccc(OCc2ccc(-c3ccccc3)cc2)cc1)C(=O)OC(C)(C)C`, the melting point fell in the range of 109 to 110 °C.

`N=C(N)Nc1nc(CSCCNC(N)=N[N+](=O)[O-])ns1` returned a melting point of 184 to 186 °C.

Take `CSc1nc(Cl)c2sccc2n1`: the melting point was in the range of 115 to 118 °C.

`CC(C)OC(=O)c1cc(-n2c(=O)[nH]c3c(c2=O)CCCC3)ccc1Cl`: the melting point was 205 to 207 °C.

In turn, `COC1=C(OC)C(=O)C(CCCCC[C@H]2CC[C@H](O)CC2)=C(C)C1=O` registered a melting point of 49 to 51 °C.

The compound `CC1NC(=O)NN=C1c1ccc(Br)cc1` (centres undefined) displayed a melting point of 214 to 215 °C.

Compound `CC(C)c1cccc(S(=O)(=O)n2c(CCCC(=O)O)cc3cc(C(F)(F)F)ccc32)c1` came in with a melting point of 160 °C.

For the compound `CC(=NOc1ccc(C=O)cc1)c1ccc(C)cc1`, the melting point lay in the range of 96 to 98 °C.

`COc1cccc(CNc2cc(C(N)=O)c([N+](=O)[O-])cc2[N+](=O)[O-])c1` showed a melting point of 222 to 224 °C.

In turn, `CCN(CC)c1cc(C)nc(Oc2c(C)cc(C)cc2C)c1C` displayed a melting point of 180 to 181 °C.

Turning to `Cc1c(SCCCSc2sccc2[N+](=O)[O-])ccnc1CO`, the melting point lay in the range of 134 to 138 °C.

In the case of `ClC1=Nc2ccccc2Oc2c1csc2Cl`, the melting point fell in the range of 144 to 145 °C.

For the compound `O=C1NC(=O)C(Cc2ccc(OCCON=Cc3ccc(-c4ccccc4)cc3)cc2)S1` (centres undefined), the melting point was in the range of 124 to 127 °C.

In turn, `Cn1nc(-c2cccc(-n3ncc4cc(C(C)(C)C)cc(F)c4c3=O)c2CO)cc(Nc2cnc(C(F)(F)F)cn2)c1=O` returned a melting point of 250 to 254 °C.

Compound `OCc1conc1-c1ccc(F)c(Cl)c1` returned a melting point of 87 to 88 °C.

Regarding `O=C(O)c1ccc(-c2c3ccccc3nn2Cc2ccc(F)cc2)cc1`, the melting point lay in the range of 237 to 239 °C.

The compound `NS(=O)(=O)c1ccc(NC(=O)NC2CCCC2)cc1` came in with a melting point of 224 to 226 °C.

With `CCN(CCCCNC(=O)c1ccc2ccccc2c1)C1CCc2ncsc2C1` (centres undefined), the melting point amounted to 120 °C.

In the case of `COc1ccc2cc(C3CCN(CC(O)COc4ccccc4C=C4CCOC4=O)CC3)ccc2c1` (centres undefined), the melting point lay in the range of 148 to 150 °C.

As for `Cc1nc(N=CN(C)C)sc1C`, the melting point lay in the range of 47 to 58 °C.

For the compound `O=c1c2ccc3c(c2oc2cccc(F)c12)CC(CO)O3` (centres undefined), the melting point is 220 to 221 °C.

As for `Cc1ccc(C)c(-c2cccc3c2OC(CN)C3)c1` (centres undefined), the melting point is over 225 °C.

Compound `ON=C1c2ccccc2CCC1Cc1ccccc1` (centres undefined) came in with a melting point of 123 to 124 °C.

As for `N#CC1CN1C(=O)CNC(=O)c1ccccc1` (centres undefined), the melting point was in the range of 78 to 81 °C.

For `CC(C)OC(=O)CCC(=O)c1ccc(Cl)c(S(N)(=O)=O)c1`, the melting point was in the range of 128 to 130 °C.

`CC(C)n1c(C=O)c(-c2ccc(F)cc2)c(-c2ccccc2)c1C(=O)O`: the melting point was 219 to 220 °C.

In turn, `CC(C)(C)c1cc(CCc2ccccc2NC(=O)NC2CCCCC2)cc(C(C)(C)C)c1O` came in with a melting point of 198 to 200 °C.

Regarding `CNCCN1CCn2c1nc1ccccc12`, the melting point was in the range of 60 to 63 °C.

Compound `O=C1c2ccccc2C(=O)N1c1cccnc1Cl` displayed a melting point of 156 to 157 °C.

On to `O=c1[nH]c2ccc(Br)cc2c(=O)n1CCS`, for which the melting point is 334 to 336 °C.

`CCN1CCN(c2nc(-c3ccc(OCCO)cc3OC)cc3ccccc23)CC1` displayed a melting point of 140 to 142 °C.

In turn, `Fc1ccc(C=Cc2ccc(C3COC(c4c(F)cccc4F)=N3)cc2)cc1` (centres undefined) yielded a melting point of 154 to 156 °C.

In turn, `Cc1oc(-c2ccccc2)nc1COc1ccc(O)cc1` showed a melting point of 168 to 169 °C.

As for `COc1ccc(C)cc1NC(=O)Nc1ccc(N2CCN(C(=O)Nc3ccc(NC(C)=O)cc3Cl)CC2)cc1`, the melting point lay within 155 to 157 °C.

For the compound `CC(C)(CCl)C(=O)NCc1ccc(Cl)cc1`, the melting point is 97 to 98 °C.

The compound `FC(F)(F)c1ccc(-c2cc(Oc3ccc4cccnc4c3)ncn2)c(NCC2CCCCC2)n1` had a melting point of 151 to 152 °C.

With `COc1ccc(COc2cccc(C#CC(=O)c3ccccc3)c2)cc1`, the melting point fell in the range of 79 to 80 °C.

Turning to `O=C(O)c1cn(-c2cccnc2)c2c(F)c(F)c(F)cc2c1=O`, the melting point fell in the range of 122 to 124 °C.

The compound `CC(=O)OCSC1=CCC2C3CCC4=CC(=O)C=CC4(C)C3(F)C(O)CC12C` (centres undefined) yielded a melting point of 193 to 194 °C.

Consider `C1=C(/C=C/c2ccccc2)CCN(Cc2c[nH]c3ccccc23)C1`, for which the melting point was 191 to 193 °C.

In the case of `Cc1c(-c2ccc3c(c2)OCO3)[nH]c2ccc(OCc3ccccc3)cc12`, the melting point fell in the range of 142 to 145 °C.

`CC=CCn1c(C)c(C)c2cnnc(OCc3cccnc3)c21` came in with a melting point of 80 to 81 °C.

`O=c1c2c(Cc3ccccc3)n[nH]c2c2cccnc2n1-c1cccc([N+](=O)[O-])c1` yielded a melting point of 276 to 279 °C.

On to `COc1cc(C)cc(OC)c1C(=O)c1ccccc1N(C)C(=O)CBr`, for which the melting point stood at 121 °C.

The compound `CNC(=O)c1ccccc1Nc1nc(Nc2cc3c(cc2OC)CCN(CCOC)CC3)ncc1Cl` showed a melting point of 109 to 112 °C.

Take `CNC(=O)c1c(-c2ccccc2)oc(-c2ccccc2)cc1=O`: the melting point lay within 196 to 197 °C.

`Cc1ccc(-c2cc(C)cn2-c2ccc(S(N)(=O)=O)cc2)cc1` returned a melting point of 175 to 176 °C.

Compound `Cn1ccnc1SCC(=O)C12CC3CC(CC(C3)C1)C2` yielded a melting point of 65 to 69 °C.

As for `Nc1cc(F)c(-n2ccc(=O)cc2)cc1N`, the melting point lay in the range of 227 to 230 °C.

For `CCOC(=O)c1ccc(-n2cncn2)cc1`, the melting point was 97 to 99 °C.

Compound `N#Cc1ccc(C(F)(F)C(F)(F)C(F)(F)c2ccc(C#N)c(C#N)c2)cc1C#N` returned a melting point of 133 to 135 °C.

In turn, `COC(=O)c1ccc(C(=O)NCCNC(=O)c2ccc(C(=O)OC)cc2)cc1` had a melting point of 297 to 299 °C.

For the compound `O=C(c1ccccc1)c1ccc2c(c1)C1(c3ccccc3-2)c2ccccc2-c2ccc(C(=O)c3ccccc3)cc21`, the melting point was in the range of 260 to 261 °C.

Compound `N#Cc1ccc(C(=O)C23CCCN2C(=O)N(c2cc(Cl)cc(Cl)c2)C3=O)cc1` (centres undefined) had a melting point of 72.1 °C.

Turning to `O=C(CC1COC1)N[C@H]1CC[C@H](CCN2CCN(c3nccc4c3CCO4)CC2)CC1`, the melting point came to 195 °C.

`CN1C(=O)S/C(=C\c2cn(-c3ccccc3)nc2OCc2ccccc2)C1=O` showed a melting point of 226 to 227 °C.

As to `O=C(OCc1ccc(-c2ccc(N3C[C@H](Cn4ccnn4)OC3=O)cc2F)cn1)N1CCOCC1`, the melting point is 131 to 133 °C.

Turning to `COC(=O)c1cc(NN=C(c2ccccc2)c2ccccc2)c(C#N)s1`, the melting point lay in the range of 178 to 180 °C.

For `COc1cc(Cc2cnc(N)nc2N)cc2c(C)cc(C)nc12`, the melting point fell in the range of 289 to 290 °C.

The compound `CCCC(=O)NCCc1c[nH]c2ccc3c(c12)CCCO3` yielded a melting point of 91 to 93 °C.

Turning to `CCOC(=O)c1cc2cc(O)ccc2n1C`, the melting point lay in the range of 140 to 142 °C.

Consider `CCOC(=O)c1ccc(NCCOc2ccc(F)cc2)cc1`, for which the melting point lay in the range of 122 to 123 °C.

In turn, `CC(=NO)C(C)(C)NCC(CNC(C)(C)C(C)=NO)CC(O)CC1([N+](=O)[O-])N=CC=N1` (centres undefined) had a melting point of 185 to 187 °C.

Consider `CC(=O)c1ccc(SC(=O)N(C)C)cc1OCC(=O)O`, for which the melting point lay in the range of 173 to 174 °C.

With `CC(C)(C)OC(=O)Nc1ccc(C#Cc2nccs2)cc1N`, the melting point is 182 °C.

For the compound `CC(=O)OCC1OC(N(CCCl)P(=O)(O)NCCCl)C(OC(C)=O)C(OC(C)=O)C1OC(C)=O` (centres undefined), the melting point amounted to 91 °C.

Compound `O=c1c2cnc3cc4c(cc3c2sn1CCc1ccccn1)OCO4` came in with a melting point of 200 to 201 °C.

As for `CS(=O)(=O)c1ccc(-n2nc(C(F)(F)F)cc2-c2nc3ccc(Cl)cc3s2)cc1`, the melting point is 195 to 196 °C.

In turn, `C=CCSc1nnc(OC)c(C)c1C` returned a melting point of 51 to 53 °C.

The compound `Clc1ccc2c(c1)N(c1ncnc3cc4c(cc13)OCCO4)CC2` returned a melting point of 209 to 211 °C.

Take `CC(=O)CC(=O)OCCCN1C(=O)c2ccccc2C1=O`: the melting point fell in the range of 67 to 71 °C.

In the case of `CC1=C(C(=O)OCCCl)C(c2cccc3c(=O)c(C)c(-c4ccccc4)oc23)C(C(=O)OC(C)C)=C(C)N1` (centres undefined), the melting point was in the range of 235 to 237 °C.

The compound `CC(=O)c1ccc(OCCCN2CCC(c3noc4cc(F)ccc34)CC2)c(CC(N)=O)c1` yielded a melting point of 108 to 110 °C.

Take `O=C(O)CN1C(=O)C(=Cc2ccc([N+](=O)[O-])o2)SC1=S`: the melting point was in the range of 238 to 242 °C.

Compound `C=C(C)C(=O)Nc1cccc(C(=O)NC2=NN(c3c(Cl)cc(Cl)cc3Cl)C(=O)C2c2cc[nH]n2)c1` (centres undefined) came in with a melting point of 227 to 230 °C.

`Oc1ccccc1C=NCCN=Cc1ccccc1O`: the melting point amounted to 126 °C.

In turn, `CC(C)(c1ccc(O)cc1)c1ccc(O)c(C(=O)Oc2ccccc2)c1` registered a melting point of 140 °C.

As for `CCOC(=O)CN(C(=O)C(F)(F)F)C(NC(C)C)P(=O)(O)OSCC` (centres undefined), the melting point was 85 to 87 °C.

Regarding `CC(C)(F)C1COCc2nc3c(N)nc4c(c3n21)CCCC4` (centres undefined), the melting point was in the range of 196 to 197 °C.

As for `CN(C)c1ccccc1CSC1=NC(=O)NC1(C)C`, the melting point was 160 to 162 °C.

For the compound `OCc1cn(-c2cccc(Cl)c2)cn1`, the melting point is 78 to 79 °C.

Consider `Cc1cc(-n2c(C)ccc2-c2ccc(S(C)(=O)=O)cc2)ccc1-c1ccco1`, for which the melting point lay within 160 to 162 °C.

`Cc1cc(C)c(N2c3ccccc3Sc3cc(C=O)ccc32)c(C)c1`: the melting point fell in the range of 136 to 140 °C.

Regarding `CCOC(=O)C1=C(N)NC(C)=C(C(=O)OC)C1c1cccc([N+](=O)[O-])c1` (centres undefined), the melting point was 124 °C.

On to `C[C@@H](O)Cn1ccc2cc(Cl)c(F)cc21`, for which the melting point was 108 to 110 °C.

`CCOC(=O)c1cnoc1-c1ccc(Cl)cc1Cl`: the melting point lay in the range of 82 to 84 °C.

`Cc1sc2c(Br)c3ccccc3c(-c3ccc(OS(=O)(=O)c4scc(C(=O)O)c4O)c(C4CCCC4)c3)c2c1C` gave a melting point of over 230 °C.
